{
  "source": "paper PMC8957573",
  "about": "(Journal of Natural Products, 2022)",
  "target": "T1, TAK1 (Homo sapiens, UniProt O43318)",
  "T1 sequence (O43318 1-303 limits assumed)": "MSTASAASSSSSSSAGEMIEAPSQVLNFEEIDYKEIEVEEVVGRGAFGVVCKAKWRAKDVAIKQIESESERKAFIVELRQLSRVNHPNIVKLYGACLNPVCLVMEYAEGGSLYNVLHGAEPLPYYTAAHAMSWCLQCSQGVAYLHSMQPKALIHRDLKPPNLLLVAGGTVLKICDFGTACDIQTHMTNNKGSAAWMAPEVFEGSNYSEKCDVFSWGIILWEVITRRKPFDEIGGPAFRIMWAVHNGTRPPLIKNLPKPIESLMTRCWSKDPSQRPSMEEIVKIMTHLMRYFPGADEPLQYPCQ",
  "assay": "TAK1 inhibition assay",
  "format": "biochemical",
  "settings": "cis-enone RALs",
  "data": [
    {"smiles": "COc1cc(O)c2c(c1)[C@H]1O[C@@H]1C[C@H](O)[C@H](O)C(=O)/C=C\\C[C@H](C)OC2=O", "note": "[Hypothemycin (1), Hypothemycin]", "values": [
      {"measurement": "Inhibitory activity against TAK1 (in words)", "value": "inhibit TAK1"}
    ]}
  ]
}
